Experimental data from patent publication US10350189B2, “Method for transnasal delivery of blood-brain barrier permeation agent and therapeutic agent” (priority 2015, dated 2019).
“Also recorded” adds a separate entry of the source.

Experiments:
[1] = cited from earlier work
Male Sprague-Dawley rats [2] = assay: Mean arterial pressure after intranasal application to the SPG; assay type: in vivo, rat
Procedure: (§1) Male Sprague-Dawley rats (Harlan, Indianapolis, Ind.) weighing 300-350 g were allowed to acclimate for at least 4 days prior to experimentation. Rats were housed 2 per cage in a room with controlled light (6:00 a.m. to 6:00 p.m.), humidity (50±10%) and temperature (23±1° C.). Animal care and use for experimental procedures was approved by and in accordance with the guidelines of the Midwestern University Institutional Animal Care and Use Committee (IACUC).
(§2) All drugs/solutions were freshly prepared on the day of administration using sterile saline (0.9% NaCl, Hospira, Inc., Lake Forest, Ill.). Urethane (ethyl carbamate, Sigma-Aldrich, St. Louis, Mo.) was administered intraperitoneally (IP) at a dose of 1.5 g/kg. […] Evans blue (5 mL/kg) was administered intravenously (IV) via left femoral vein cannula.
(§3) Two studies were designed for this project, using a total of 42 rats.
(§4) Rats were anesthetized with urethane (1.5 g/kg, IP) and immobilized on a surgical board equipped with a controlled heating pad. Core temperature, measured via rectal probe, was maintained at 37±1° C. In order to maintain blood pO2, pCO2 and pH, and to avoid the effect of respiration on blood pressure (BP) and heart rate (HR), animals were kept on artificial respiration via an endotracheal cannula connected to a rodent ventilator (Model 683, Harvard Apparatus, Inc., Holliston, Mass.). […]

Male Sprague-Dawley rats [3] = assay: Heart rate after intranasal application to the SPG; assay type: in vivo, rat
Procedure: as §1, §2, §3, §4

Male Sprague-Dawley rats [4] = assay: Cerebral blood flow by Laser Speckle Contrast Analysis after intranasal application to the SPG; assay type: in vivo, rat; conditions: rivastigmine-treated (1 and 2 mg/kg) vs saline
Procedure: as §3
Animals anesthetized with urethane were secured into a stereotactic apparatus (David Kopf Instruments, Tujunga, Calif.) and a midline incision was made on their scalp. The skull was slowly thinned using a dremel, working in 30 second periods to minimize heat caused by friction. Cerebral blood flow was measured using Laser Speckle Contrast Analysis (LASCA) technology with a PeriCam PSI HR system (Perimed, Inc., Ardmore, Pa.), captured in real time and analyzed using PIMSoft software (Perimed).
GraphPad Instat 2.00 was used to conduct a power analysis. […] Data are presented as mean±SEM. The significance of differences for mean arterial pressure, heart rate and cerebral blood flow was estimated by 2-way analysis of variance followed by Tukey's post hoc test. One-way analysis of variance followed by Tukey's post hoc test was used to estimate significance for BBB permeability. A P value of less than 0.05 was considered significant. The statistical analysis was processed with GraphPad Prism 6.05 (GraphPad, San Diego, Calif.).

[5] = tested on: BBB of the rat test subjects; assay: BBB permeability by Evans Blue concentration in brain after intranasal topical application to the SPG; assay type: in vivo
Source text: Data are presented as mean±SEM. […] A P value of less than 0.05 was considered significant.

[6] = 1, 2 or 4 mg/kg to the SPG via intranasal cannula

COc1ccc2c3c1O[C@H]1C[C@@H](O)C=C[C@@]31CCN(C)C2 [galantamine]
solubility in water [1]: about 10 mg/mL

C/C=C1\[C@H]2C=C(C)C[C@]1(N)c1ccc(=O)[nH]c1C2 [huperzine]
solubility in water [1]: about 0.188 mg/mL

CN(C)C(=O)Oc1cccc([N+](C)(C)C)c1 [neostigmine]
mean arterial pressure (Male Sprague-Dawley rats [2]; 0.4 mg/kg, at 15 and 30 min postadministration): slight decrease in mean arterial pressure
heart rate (Male Sprague-Dawley rats [3]; 0.4 mg/kg, over time): slight decrease in heart rate

CNC(=O)Oc1ccc2c(c1)[C@]1(C)CCN(C)[C@@H]1N2C [physostigmine]
solubility in water [1]: about 7.76 mg/mL

CCN(C)C(=O)Oc1cccc([C@H](C)N(C)C)c1 [rivastigmine]
solubility in water [1]: about 2.04 mg/mL
cerebral blood flow (Male Sprague-Dawley rats [4]): No significant differences
BBB permeability, in words ([5]; 1 mg/kg compared with saline, 2 and 4 mg/kg): significantly higher than saline; also recorded: greatest permeabilization
BBB permeability, in words ([5]; Study I, 2 mg/kg rivastigmine compared with 0.4 mg/kg neostigmine): slightly increased permeability of the BBB over neostigmine
BBB permeability, in words (Evans Blue dye in the CNS) ([5]; topical administration to the SPG, overall conclusion): increase in BBB permeability
mean arterial pressure (Male Sprague-Dawley rats [2]; [6]): did not significantly alter
heart rate (Male Sprague-Dawley rats [3]; [6]): did not significantly vary
